“And” between values parts separate entries of the source, which are not always exact repeats. Equal values may be shown once. Read-outs that look alike come from different tables or passages of the source.
Legend:
peroxidase = assay: Peroxidase assay in saliva (Amplex Red); assay type: biochemical
Protocol: To determine the effect of various GRAS compounds as inhibitors of peroxidase activity, a standard assay using Amplex® Red (Life Technologies), which releases a fluorescent oxidation product.
The test compounds, such as GRAS materials or cocktails of same, were prepared at a concentration of 500 ppm in distilled water. For the assay, 50 μl samples of test compounds were mixed with 20-30 μl of saliva (either “pooled” or “unpooled”) prior to the addition of Amplex® Red. […] Reactions were allowed to run for 30 minutes during these assays.

α-amylase = target: T1, α-amylase (Homo sapiens, UniProt P0DUB6); assay: α-Amylase inhibition saliva screening (chromogenic substrate, 405 nm); assay type: biochemical; details: for Ave (absorbance at 405 nm): average of 4 readings; for absorbance at 405 nm, single reading: test compound prepared at 5,000 ppm, 37° C.
T1 sequence (P0DUB6 16-511): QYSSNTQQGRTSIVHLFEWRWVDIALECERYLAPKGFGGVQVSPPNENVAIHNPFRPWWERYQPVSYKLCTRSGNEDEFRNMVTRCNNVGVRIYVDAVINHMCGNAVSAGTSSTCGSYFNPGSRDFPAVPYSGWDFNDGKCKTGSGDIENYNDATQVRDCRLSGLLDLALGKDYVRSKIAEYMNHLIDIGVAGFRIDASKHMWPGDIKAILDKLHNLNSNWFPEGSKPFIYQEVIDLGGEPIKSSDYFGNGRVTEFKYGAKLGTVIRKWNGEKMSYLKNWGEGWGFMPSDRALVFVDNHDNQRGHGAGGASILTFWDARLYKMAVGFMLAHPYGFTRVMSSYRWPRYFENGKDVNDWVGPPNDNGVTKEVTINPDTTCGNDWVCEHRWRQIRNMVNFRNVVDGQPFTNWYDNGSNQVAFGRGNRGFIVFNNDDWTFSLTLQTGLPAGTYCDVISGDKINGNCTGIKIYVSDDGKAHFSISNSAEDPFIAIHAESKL
Description: Further details of these five compounds may also be seen in Table 4.

protease = details: natural protease inhibitors; cited from earlier work
[1] = 500 ppm, pooled and unpooled saliva controls, 30 minutes, FIGS. 26-29

Row | Molecule | peroxidase inhibition (peroxidase; [1]) | Ave (absorbance at 405 nm) (α-amylase; Time 0 min) | Ave (absorbance at 405 nm) (α-amylase; Time 5 min) | Ave (absorbance at 405 nm) (α-amylase; Time 15 min) | also measured
1 | Aluminum potassium sulfate dodecahydrate [CDI-42] | showed significant peroxidase inhibition capabilities | 0.92 | 1.85 | 2.29 | absorbance at 405 nm, single reading (α-amylase; Time 0 min): 0.80 and 1.13 and 0.90 and 0.84; absorbance at 405 nm, single reading (α-amylase; Time 5 min): 1.65 and 2.15 and 1.80 and 1.81; absorbance at 405 nm, single reading (α-amylase; Time 15 min): 2.37 and 2.38 and 2.25 and 2.17
2 | O=C(O)c1ccccc1 [CDI #16, Benzoic acid] | – | – | – | – | peroxidase inhibition (peroxidase): showed significant peroxidase inhibition capabilities
3 | Aluminum sulfate hydrate [CDI-34] | – | 0.40 | 0.50 | 0.56 | absorbance at 405 nm, single reading (α-amylase; Time 0 min, sulfate hydrate): 0.40 and 0.36 and 0.45; absorbance at 405 nm, single reading (α-amylase; Time 5 min, sulfate hydrate): 0.49 and 0.50 and 0.52; absorbance at 405 nm, single reading (α-amylase; Time 15 min, sulfate hydrate): 0.53 and 0.61 and 0.54 and 0.56
4 | COc1ccc(O)c(C(C)(C)C)c1 [CDI-039, 3-tert--butyl-hydroxyanisole] | showed significant peroxidase inhibition capabilities | – | – | – | –
5 | Cn1c(=O)c2c(ncn2C)n(C)c1=O [CDI #33, Caffeine] | showed significant peroxidase inhibition capabilities | – | – | – | –
6 | Soybeans: primary soybean protease inhibitor, 20.7-22.3 kDa (protein, UniProt P01070 25-205, looked up) Trypsin inhibitor A: DFVLDNEGNPLENGGTYYILSDITAFGGIRAAPTGNERCPLTVVQSRNELDKGIGTIISSPYRIRFIAEGHPLSLKFDSFAVIMLCVGIPTEWSVVEDLPEGPAVKIGENKDAMDGWFRLERVSDDEFNNYKLVFCPQQAEDDKCGDIGISIDHDDGTRRLVVSKNKPLVVQFQKLDKESL | – | – | – | – | Inhibitory power (protease): 1.2 times times weight

— patent US20110195427A1, “SYSTEMS AND METHODS FOR DETECTING PREGNANCY” (priority 2010, published 2011)
